Assay results published in ChEMBL document CHEMBL3396981, “Synthesis and in vitro biological evaluation of 2-(phenylcarbamoyl)phenyl 4-substituted benzoates” (Bioorg Med Chem, 2015).
≈ marks a conversion by molar mass, not a printed value.

Assays:
[1] = tested on: Mycobacterium tuberculosis; assay: Antimycobacterial activity against INH, RIF, rifabutin, streptomycin, ethambutol, ofloxacin-resistant Mycobacterium tuberculosis 7357/1998 after 14 days by microdilution method; format: functional; conditions: 7357/1998, 336 h
[2] = tested on: Mycobacterium tuberculosis; assay: Antimycobacterial activity against INH, RIF, rifabutin, streptomycin-resistant Mycobacterium tuberculosis 9449/2006 after 21 days by microdilution method; format: functional; conditions: 9449/2006, 504 h
[3] = tested on: Mycobacterium tuberculosis; assay: Antimycobacterial activity against INH, RIF, rifabutin, streptomycin, ethambutol, ofloxacin, clofazimine-resistant Mycobacterium tuberculosis Praha 4 after 14 days by microdilution method; format: functional; conditions: Praha 4, 336 h
[4] = tested on: Mycobacterium tuberculosis; assay: Antimycobacterial activity against INH, RIF, rifabutin, streptomycin, ethambutol, ofloxacin, gentamicin, amikacin-resistant Mycobacterium tuberculosis Praha 131 after 14 days by microdilution method; format: functional; conditions: Praha 131, 336 h
[5] = tested on: Mycobacterium tuberculosis; assay: Antimycobacterial activity against INH, RIF, rifabutin, streptomycin, ethambutol, ofloxacin, clofazimine-resistant Mycobacterium tuberculosis Praha 4 after 21 days by microdilution method; format: functional; conditions: Praha 4, 504 h
[6] = tested on: Mycobacterium tuberculosis; assay: Antimycobacterial activity against INH, RIF, rifabutin, streptomycin-resistant Mycobacterium tuberculosis 9449/2006 after 14 days by microdilution method; format: functional; conditions: 9449/2006, 336 h
[7] = Selectivity index, ratio of IC50 for human HepG2 cells to MIC for multidrug-resistant Mycobacterium tuberculosis; format: toxicity, cell-based; conditions: read-out: Selectivity Index
[8] = tested on: Mycobacterium tuberculosis; assay: Antimycobacterial activity against INH, RIF, rifabutin, streptomycin, ethambutol, ofloxacin, gentamicin, amikacin-resistant Mycobacterium tuberculosis Praha 131 after 21 days by microdilution method; format: functional; conditions: Praha 131, 504 h
[9] = tested on: Mycobacterium tuberculosis; assay: Antimycobacterial activity against INH, RIF, rifabutin, streptomycin, ethambutol, ofloxacin-resistant Mycobacterium tuberculosis 7357/1998 after 21 days by microdilution method; format: functional; conditions: 7357/1998, 504 h
[10] = tested on: Mycobacterium tuberculosis; assay: Antimycobacterial activity against INH, RIF, rifabutin, streptomycin, ethambutol, ofloxacin-resistant Mycobacterium tuberculosis 234/2005 after 14 days by microdilution method; format: functional; conditions: 234/2005, 336 h
[11] = tested on: Mycobacterium tuberculosis; assay: Antimycobacterial activity against INH, RIF, rifabutin, streptomycin, ethambutol, clofazimine-resistant Mycobacterium tuberculosis Praha 1 after 21 days by microdilution method; format: functional; conditions: Praha 1, 504 h
[12] = tested on: Mycobacterium tuberculosis; assay: Antimycobacterial activity against INH, RIF, rifabutin, streptomycin, ethambutol, clofazimine-resistant Mycobacterium tuberculosis Praha 1 after 14 days by microdilution method; format: functional; conditions: Praha 1, 336 h
[13] = tested on: Mycobacterium tuberculosis; assay: Antimycobacterial activity against INH, RIF, rifabutin, streptomycin, ethambutol, ofloxacin-resistant Mycobacterium tuberculosis 234/2005 after 21 days by microdilution method; format: functional; conditions: 234/2005, 504 h

Structure (SMILES)	MIC [1]	MIC [2]	MIC [3]	MIC [4]	MIC [5]	MIC [6]	selectivity ratio [7]	MIC [8]	MIC [9]	MIC [10]	MIC [11]	MIC [12]	MIC [13]
O=C(Oc1ccc(Cl)cc1C(=O)Nc1ccc(Cl)c(Cl)c1)c1ccc([N+](=O)[O-])cc1	0.25 µM (≈ 0.116 µg/mL)	0.5 µM (≈ 0.233 µg/mL)	0.25 µM (≈ 0.116 µg/mL)	0.25 µM (≈ 0.116 µg/mL)	0.5 µM (≈ 0.233 µg/mL)	0.25 µM (≈ 0.116 µg/mL)	> 100	0.25 µM (≈ 0.116 µg/mL)	0.5 µM (≈ 0.233 µg/mL)	–	–	–	–
O=C(Oc1ccc(Cl)cc1C(=O)Nc1ccc(C(F)(F)F)cc1)c1ccccc1	0.25 µM (≈ 0.105 µg/mL)	0.5 µM (≈ 0.21 µg/mL)	–	0.25 µM (≈ 0.105 µg/mL)	–	0.5 µM (≈ 0.21 µg/mL)	–	0.5 µM (≈ 0.21 µg/mL)	0.5 µM (≈ 0.21 µg/mL)	0.25 µM (≈ 0.105 µg/mL)	0.5 µM (≈ 0.21 µg/mL)	0.5 µM (≈ 0.21 µg/mL)	0.25 µM (≈ 0.105 µg/mL)
Cc1ccc(C(=O)Oc2ccc(Cl)cc2C(=O)Nc2ccc(C(F)(F)F)cc2)cc1	1 µM (≈ 0.434 µg/mL)	1 µM (≈ 0.434 µg/mL)	1 µM (≈ 0.434 µg/mL)	1 µM (≈ 0.434 µg/mL)	1 µM (≈ 0.434 µg/mL)	1 µM (≈ 0.434 µg/mL)	> 25	1 µM (≈ 0.434 µg/mL)	1 µM (≈ 0.434 µg/mL)	2 µM (≈ 0.868 µg/mL)	1 µM (≈ 0.434 µg/mL)	1 µM (≈ 0.434 µg/mL)	2 µM (≈ 0.868 µg/mL)
O=C(Oc1ccc(Cl)cc1C(=O)Nc1ccc(C(F)(F)F)cc1)c1ccc(C(F)(F)F)cc1	0.5 µM (≈ 0.244 µg/mL)	1 µM (≈ 0.488 µg/mL)	–	0.5 µM (≈ 0.244 µg/mL)	–	1 µM (≈ 0.488 µg/mL)	–	1 µM (≈ 0.488 µg/mL)	1 µM (≈ 0.488 µg/mL)	0.5 µM (≈ 0.244 µg/mL)	0.5 µM (≈ 0.244 µg/mL)	0.5 µM (≈ 0.244 µg/mL)	1 µM (≈ 0.488 µg/mL)
O=C(Oc1ccc(Cl)cc1C(=O)Nc1ccc(C(F)(F)F)cc1)c1ccc([N+](=O)[O-])cc1	0.5 µM (≈ 0.232 µg/mL)	1 µM (≈ 0.465 µg/mL)	0.25 µM (≈ 0.116 µg/mL)	0.5 µM (≈ 0.232 µg/mL)	1 µM (≈ 0.465 µg/mL)	0.5 µM (≈ 0.232 µg/mL)	> 50	1 µM (≈ 0.465 µg/mL)	1 µM (≈ 0.465 µg/mL)	0.25 µM (≈ 0.116 µg/mL)	1 µM (≈ 0.465 µg/mL)	0.5 µM (≈ 0.232 µg/mL)	1 µM (≈ 0.465 µg/mL)
O=C(Oc1ccc(Cl)cc1C(=O)Nc1ccc(C(F)(F)F)cc1)c1ccc(Br)cc1	1 µM (≈ 0.499 µg/mL)	1 µM (≈ 0.499 µg/mL)	–	1 µM (≈ 0.499 µg/mL)	–	1 µM (≈ 0.499 µg/mL)	> 25	1 µM (≈ 0.499 µg/mL)	1 µM (≈ 0.499 µg/mL)	2 µM (≈ 0.997 µg/mL)	1 µM (≈ 0.499 µg/mL)	1 µM (≈ 0.499 µg/mL)	2 µM (≈ 0.997 µg/mL)
O=C(Oc1ccc(Br)cc1C(=O)Nc1ccc(C(F)(F)F)cc1)c1ccccc1	0.25 µM (≈ 0.116 µg/mL)	1 µM (≈ 0.464 µg/mL)	–	0.5 µM (≈ 0.232 µg/mL)	–	1 µM (≈ 0.464 µg/mL)	–	1 µM (≈ 0.464 µg/mL)	0.5 µM (≈ 0.232 µg/mL)	0.5 µM (≈ 0.232 µg/mL)	1 µM (≈ 0.464 µg/mL)	1 µM (≈ 0.464 µg/mL)	0.5 µM (≈ 0.232 µg/mL)
Cc1ccc(C(=O)Oc2ccc(Br)cc2C(=O)Nc2ccc(C(F)(F)F)cc2)cc1	1 µM (≈ 0.478 µg/mL)	1 µM (≈ 0.478 µg/mL)	1 µM (≈ 0.478 µg/mL)	1 µM (≈ 0.478 µg/mL)	1 µM (≈ 0.478 µg/mL)	1 µM (≈ 0.478 µg/mL)	> 25	1 µM (≈ 0.478 µg/mL)	1 µM (≈ 0.478 µg/mL)	2 µM (≈ 0.957 µg/mL)	1 µM (≈ 0.478 µg/mL)	1 µM (≈ 0.478 µg/mL)	2 µM (≈ 0.957 µg/mL)
O=C(Oc1ccc(Br)cc1C(=O)Nc1ccc(C(F)(F)F)cc1)c1ccc(C(F)(F)F)cc1	1 µM (≈ 0.532 µg/mL)	1 µM (≈ 0.532 µg/mL)	–	0.5 µM (≈ 0.266 µg/mL)	–	1 µM (≈ 0.532 µg/mL)	–	1 µM (≈ 0.532 µg/mL)	1 µM (≈ 0.532 µg/mL)	0.5 µM (≈ 0.266 µg/mL)	1 µM (≈ 0.532 µg/mL)	0.5 µM (≈ 0.266 µg/mL)	1 µM (≈ 0.532 µg/mL)
O=C(Oc1ccc(Br)cc1C(=O)Nc1ccc(C(F)(F)F)cc1)c1ccc([N+](=O)[O-])cc1	0.5 µM (≈ 0.255 µg/mL)	0.5 µM (≈ 0.255 µg/mL)	0.5 µM (≈ 0.255 µg/mL)	0.25 µM (≈ 0.127 µg/mL)	0.5 µM (≈ 0.255 µg/mL)	0.5 µM (≈ 0.255 µg/mL)	> 100	0.5 µM (≈ 0.255 µg/mL)	0.5 µM (≈ 0.255 µg/mL)	–	–	–	–
O=C(Oc1ccc(Br)cc1C(=O)Nc1ccc(C(F)(F)F)cc1)c1ccc(Br)cc1	0.5 µM (≈ 0.272 µg/mL)	1 µM (≈ 0.543 µg/mL)	0.25 µM (≈ 0.136 µg/mL)	0.5 µM (≈ 0.272 µg/mL)	0.5 µM (≈ 0.272 µg/mL)	0.5 µM (≈ 0.272 µg/mL)	> 50	1 µM (≈ 0.543 µg/mL)	1 µM (≈ 0.543 µg/mL)	–	–	–	–
O=C(Oc1ccc(Cl)cc1C(=O)Nc1ccc(Cl)c(Cl)c1)c1ccccc1	0.5 µM (≈ 0.21 µg/mL)	1 µM (≈ 0.421 µg/mL)	–	0.5 µM (≈ 0.21 µg/mL)	–	0.5 µM (≈ 0.21 µg/mL)	–	1 µM (≈ 0.421 µg/mL)	0.5 µM (≈ 0.21 µg/mL)	0.25 µM (≈ 0.105 µg/mL)	0.5 µM (≈ 0.21 µg/mL)	0.5 µM (≈ 0.21 µg/mL)	0.5 µM (≈ 0.21 µg/mL)
Cc1ccc(C(=O)Oc2ccc(Cl)cc2C(=O)Nc2ccc(Cl)c(Cl)c2)cc1	1 µM (≈ 0.435 µg/mL)	1 µM (≈ 0.435 µg/mL)	1 µM (≈ 0.435 µg/mL)	1 µM (≈ 0.435 µg/mL)	1 µM (≈ 0.435 µg/mL)	1 µM (≈ 0.435 µg/mL)	> 25	1 µM (≈ 0.435 µg/mL)	1 µM (≈ 0.435 µg/mL)	2 µM (≈ 0.869 µg/mL)	1 µM (≈ 0.435 µg/mL)	1 µM (≈ 0.435 µg/mL)	2 µM (≈ 0.869 µg/mL)
O=C(Oc1ccc(Cl)cc1C(=O)Nc1ccc(Cl)c(Cl)c1)c1ccc(C(F)(F)F)cc1	1 µM (≈ 0.489 µg/mL)	2 µM (≈ 0.977 µg/mL)	–	2 µM (≈ 0.977 µg/mL)	–	2 µM (≈ 0.977 µg/mL)	–	2 µM (≈ 0.977 µg/mL)	2 µM (≈ 0.977 µg/mL)	1 µM (≈ 0.489 µg/mL)	2 µM (≈ 0.977 µg/mL)	1 µM (≈ 0.489 µg/mL)	2 µM (≈ 0.977 µg/mL)
O=C(Oc1ccc(Cl)cc1C(=O)Nc1ccc(Cl)c(Cl)c1)c1ccc(Br)cc1	0.125 µM (≈ 0.0624 µg/mL)	0.5 µM (≈ 0.25 µg/mL)	0.25 µM (≈ 0.125 µg/mL)	0.25 µM (≈ 0.125 µg/mL)	0.5 µM (≈ 0.25 µg/mL)	0.25 µM (≈ 0.125 µg/mL)	> 100	0.25 µM (≈ 0.125 µg/mL)	0.125 µM (≈ 0.0624 µg/mL)	–	–	–	–
